Broadly, the pEC50 is the EC50 on a negative log10 scale, so that one unit is a factor of ten. The term Emax denotes the size of the effect at its maximum, as opposed to the concentration needed.

pEC50: −log10 of the molar value.

One assay deals with T1, D2 receptor (Homo sapiens, UniProt P14416).
T1 construct: TANGO fusion module (own knowledge, Kroeze et al.: C-terminal V2 tail, TEV site and tTA); 1000000068; host or cells: HTLA (HEK293-derived)
Kind of assay: cell-based. In kind it is cell-based. On the procedure: (§1) Assessment of receptor activation by compounds at all human aminergic receptors were carried out using a modified version of the PRESTO-TANGO method. […] The plate was spun down, and 5 μl of a 1:25 dilution (in DPBS) of polyethylenimine (PEI) derivative (Transporter 5, Polysciences) was added (1:4 cDNA to PEI ratio) and incubated for 20 min at room temperature (RT). […] Luminescence signal was detected using a plate-reader (SPARK, Tecan) with 100-ms integration time and a 100-ms delay between well reads.

The target of another assay is T2, H1 receptor (Homo sapiens, UniProt P35367).
T2 construct: TANGO fusion module (own knowledge, Kroeze et al.: C-terminal V2 tail, TEV site and tTA); 1000000068; host or cells: HTLA (HEK293-derived)
Kind of assay: PRESTO-TANGO β-arrestin recruitment. In kind it is cell-based. Particulars: panel screen, 10 μM; read-out: agonist activity, % of control.

The target in a further assay is T3, 5-HT1A receptor (Homo sapiens, UniProt P08908).
T3 construct: TANGO fusion module (own knowledge, Kroeze et al.: C-terminal V2 tail, TEV site and tTA); 1000000068; host or cells: HTLA (HEK293-derived)
T3 sequence (P08908 1-422): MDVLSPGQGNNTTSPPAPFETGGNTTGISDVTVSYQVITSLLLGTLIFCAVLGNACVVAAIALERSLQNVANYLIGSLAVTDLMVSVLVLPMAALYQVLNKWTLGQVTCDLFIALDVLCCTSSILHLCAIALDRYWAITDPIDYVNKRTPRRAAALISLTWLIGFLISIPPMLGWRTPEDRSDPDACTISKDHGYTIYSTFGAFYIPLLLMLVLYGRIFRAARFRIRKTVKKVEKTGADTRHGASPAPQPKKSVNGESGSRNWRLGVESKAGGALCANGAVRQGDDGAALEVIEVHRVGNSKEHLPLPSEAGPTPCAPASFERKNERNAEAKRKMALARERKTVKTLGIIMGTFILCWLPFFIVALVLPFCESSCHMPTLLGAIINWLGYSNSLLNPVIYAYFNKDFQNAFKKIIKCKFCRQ
Kind of assay: PRESTO-TANGO β-arrestin recruitment. It is filed as cell-based. Particulars: panel screen. In general terms: Recruitment of arrestin is a read-out of receptor activation apart from second messengers.

Another assay concerns the target T4, M2 receptor (Homo sapiens, UniProt P08172).
T4 construct: TANGO fusion module (own knowledge, Kroeze et al.: C-terminal V2 tail, TEV site and tTA); 1000000068; host or cells: HTLA (HEK293-derived)
T4 sequence (P08172 1-466): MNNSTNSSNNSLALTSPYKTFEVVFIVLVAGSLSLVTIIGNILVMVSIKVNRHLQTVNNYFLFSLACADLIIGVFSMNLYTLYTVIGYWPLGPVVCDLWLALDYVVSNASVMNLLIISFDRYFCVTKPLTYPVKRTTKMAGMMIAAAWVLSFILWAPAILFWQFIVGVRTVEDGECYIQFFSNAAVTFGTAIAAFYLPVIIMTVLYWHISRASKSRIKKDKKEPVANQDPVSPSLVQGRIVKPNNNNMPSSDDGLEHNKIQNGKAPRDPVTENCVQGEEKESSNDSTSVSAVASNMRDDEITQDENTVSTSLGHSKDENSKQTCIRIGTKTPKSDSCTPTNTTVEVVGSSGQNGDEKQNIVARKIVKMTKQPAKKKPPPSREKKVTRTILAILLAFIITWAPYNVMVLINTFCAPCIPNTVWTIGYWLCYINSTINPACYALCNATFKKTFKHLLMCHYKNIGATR
Put plainly: PRESTO-TANGO β-arrestin recruitment. In kind it is cell-based.

The next assay addresses T5, hTAAR1 (Homo sapiens, UniProt Q96RJ0).
T5 construct: expressed in transfected cells; host or cells: Expi293F
T5 sequence (Q96RJ0 1-339): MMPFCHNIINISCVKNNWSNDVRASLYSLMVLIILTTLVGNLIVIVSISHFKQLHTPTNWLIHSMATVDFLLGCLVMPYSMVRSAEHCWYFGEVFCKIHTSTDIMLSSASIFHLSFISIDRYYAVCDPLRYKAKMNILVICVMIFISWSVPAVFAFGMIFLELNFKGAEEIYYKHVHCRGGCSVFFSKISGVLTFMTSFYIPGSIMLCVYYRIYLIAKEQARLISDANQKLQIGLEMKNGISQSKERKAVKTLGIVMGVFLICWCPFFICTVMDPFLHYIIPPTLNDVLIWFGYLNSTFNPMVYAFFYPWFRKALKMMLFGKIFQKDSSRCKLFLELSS
Kind of assay: G protein (mini-Gs) recruitment luminescence complementation assay, agonist mode. In kind it is cell-based. On the procedure:
The 62 predicted ligands were purchased from commercial vendors and tested for activity at a concentration of 20 μM in a luminescence complementation–based assay measuring recruitment of mini-Gs to the human TAAR1 ([38]).
To monitor TAAR1 activation by compounds, we used our previously described system. […] Cells were then reseeded in solid white, 96-well plates (Corning) with 90 μl of cell suspension per well. Luminescence was read using a plate reader for 5 min (SPARK 10 M, Tecan) before the addition of compounds to ensure signal stability. Ten microliters of each compound diluted in DPBS was added, and luminescence from each well was read for 10 min, with 100-ms read time per well. The A2AR counter-screen was performed using the same protocol. In these experiments, the hTAAR1 was replaced by a C-terminally SmBiT-tagged hA2AR construct.

For another assay, the target named is T6, α2A receptor (Homo sapiens, UniProt P08913).
T6 construct: TANGO fusion module (own knowledge, Kroeze et al.: C-terminal V2 tail, TEV site and tTA); 1000000068; host or cells: HTLA (HEK293-derived)
T6 sequence (P08913 1-465): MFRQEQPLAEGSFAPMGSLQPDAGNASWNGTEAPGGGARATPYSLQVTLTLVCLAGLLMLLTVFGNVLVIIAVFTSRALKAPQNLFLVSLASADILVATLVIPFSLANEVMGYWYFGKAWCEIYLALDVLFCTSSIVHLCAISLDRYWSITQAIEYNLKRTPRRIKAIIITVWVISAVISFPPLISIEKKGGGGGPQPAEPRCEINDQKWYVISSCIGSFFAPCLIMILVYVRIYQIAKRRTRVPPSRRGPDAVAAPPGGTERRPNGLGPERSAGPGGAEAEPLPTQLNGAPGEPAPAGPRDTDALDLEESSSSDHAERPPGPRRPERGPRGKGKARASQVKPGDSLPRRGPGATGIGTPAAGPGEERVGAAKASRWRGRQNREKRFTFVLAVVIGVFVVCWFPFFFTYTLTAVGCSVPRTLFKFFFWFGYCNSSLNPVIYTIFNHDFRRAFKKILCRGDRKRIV
Put plainly: PRESTO-TANGO β-arrestin recruitment. In kind it is cell-based. Particulars: panel screen.

The target in another assay is T7, 5-HT1D receptor (Homo sapiens, UniProt P28221).
T7 construct: TANGO fusion module (own knowledge, Kroeze et al.: C-terminal V2 tail, TEV site and tTA); 1000000068; host or cells: HTLA (HEK293-derived)
Kind of assay: PRESTO-TANGO β-arrestin recruitment. It is filed as cell-based. On the procedure:
as §1

The next assay deals with TAAR1. The conditions noted are these: ref Zilberg et al. ([51]); cited from earlier work.
Assay [1] concerns WT and TAAR1-KO mice. Put plainly: Pre-pulse inhibition (PPI) behavioral assay. It is filed as in vivo. The conditions noted are these: compound 65 1 mg/kg, risperidone 0.2 mg/kg i.p. On the procedure:
Measurements were performed using startle response chambers (San Diego Instruments, San Diego, CA, USA). Each chamber is sound-isolated and contains a Plexiglass animal enclosure attached to a platform and a loudspeaker that can produce both continuous white noise and acoustic pulses of varying intensities. The animal enclosure is large enough for the animal to turn around and make other movements to reduce restraint stress. Mouse startle responses to acoustic stimuli are transformed by a piezoelectric transducer under the platform into an analog signal. The transducers were calibrated before each experiment using a standardization unit (San Diego Instruments, San Diego, CA, USA), and the speakers were calibrated using a Type 2670 Microphone Preamplifier, a Type 4230 Sound Level Calibrator, and a Type 2610 Measuring Amplifier (Brüel & Kjær, Nærum, Denmark). To habituate the mice to the chambers, they were placed in the enclosure for 5 min, with 65-dB background white noise, on three different days before the start of experiments. PPI measurements were then conducted on each mouse on four occasions separated by 96 hours. The first occasion was a mock test session where all mice were injected with vehicle, serving to reduce the effect of novelty on subsequent sessions. The next three sessions were true test sessions with injection of either compound 65, risperidone, or vehicle. The R package agricolae was used to generate a randomized block design, randomizing treatment order across sex, genotype, and test session.
Animals were brought to the testing room for habituation 60 min before the starting of tests. Thirty minutes before PPI measurements, mice were injected with either compound 65 (1 mg/kg), risperidone (0.2 mg/kg), or vehicle intraperitoneally. Each test session started with a 5-min background noise (65-dB white noise) habituation period. The background noise continued throughout the test session. The habituation period was followed by four blocks of trials, with the first and last blocks consisting of five pulse-only trials (40-ms, 120-dB pulse). During block 2, five trial types were presented five times each in a pseudo-randomized order. The trial types included pulse only, no stimulus (NOSTIM), and three different pre-pulse trials in which 20 ms pre-pulses of different intensities (68, 71, or 77 dB) preceded the startle pulse (120 dB) by a 100-ms interval. Block 3 contained the same numbers and types of trials as block 2, but in a different pseudorandom order. […] PPI data are shown as PPI%, which was calculated as [1 − (pre-pulse trials/startle-only trials)] × 100. Mean PPI was calculated by adding the average PPI% for all pre-pulse intensities (3, 6, and 12 dB) and dividing it by the number (i.e., 3) of pre-pulse intensities.

Assay [2] concerns WT and TAAR1-KO mice. Kind of assay: Open-field test: baseline locomotion and MK-801-induced hyperlocomotion. The conditions noted are these: compound 65 1 mg/kg, risperidone 0.03 mg/kg. It is filed as in vivo. On the procedure: To assess the influence of the compound on baseline locomotion and MK-801–induced hyperlocomotion, mice were subjected to open-field testing on four occasions separated by 96 hours. The first occasion was a mock test session where all mice were injected with vehicle only, serving to reduce the effect of novelty on subsequent sessions. The next three sessions were true test sessions with pretreatment of either compound 65, risperidone, or vehicle, followed by MK-801. The R package agricolae was used to generate a randomized block design, randomizing treatment order across sex, genotype, and test session. After injection with either compound 65 (1 mg/kg), risperidone (0.03 mg/kg), or vehicle intraperitoneally, mice were immediately placed in the open field and recorded for 15 min. They were then injected with MK-801 (0.35 mg/kg intraperitoneal) and recorded again for 60 min. The OFT arena measured 46 cm by 46 cm with gray floor and walls. The brightness at the center of each arena was 30 to 50 lux. The arenas were cleaned with 70% ethanol between each animal. Video from a camera mounted in the ceiling was analyzed using EthoVision XT11.5 (Noldus) software.

T1 sequence (P14416 whole entry, the tested form may be a part): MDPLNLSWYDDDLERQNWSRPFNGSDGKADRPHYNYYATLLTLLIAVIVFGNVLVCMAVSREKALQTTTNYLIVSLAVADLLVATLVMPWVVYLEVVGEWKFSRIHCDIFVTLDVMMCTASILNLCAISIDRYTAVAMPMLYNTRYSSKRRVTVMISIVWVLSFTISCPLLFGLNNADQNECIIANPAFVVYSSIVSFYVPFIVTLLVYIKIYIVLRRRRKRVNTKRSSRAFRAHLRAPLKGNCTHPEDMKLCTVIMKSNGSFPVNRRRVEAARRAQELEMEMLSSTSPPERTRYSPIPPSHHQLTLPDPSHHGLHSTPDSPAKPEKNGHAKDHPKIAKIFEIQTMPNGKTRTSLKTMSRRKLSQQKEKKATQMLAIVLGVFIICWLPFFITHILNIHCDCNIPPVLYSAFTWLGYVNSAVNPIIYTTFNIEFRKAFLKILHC
T7 sequence (P28221 whole entry, the tested form may be a part): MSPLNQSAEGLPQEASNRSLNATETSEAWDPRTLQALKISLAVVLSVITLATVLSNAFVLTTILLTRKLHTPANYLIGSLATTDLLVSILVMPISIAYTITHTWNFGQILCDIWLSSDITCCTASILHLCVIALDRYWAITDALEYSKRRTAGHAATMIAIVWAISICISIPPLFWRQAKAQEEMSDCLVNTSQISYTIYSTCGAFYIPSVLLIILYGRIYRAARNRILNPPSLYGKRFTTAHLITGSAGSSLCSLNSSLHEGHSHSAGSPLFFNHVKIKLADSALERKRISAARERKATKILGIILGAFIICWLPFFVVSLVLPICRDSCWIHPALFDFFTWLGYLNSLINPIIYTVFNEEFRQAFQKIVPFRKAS
T2 sequence (P35367 whole entry, the tested form may be a part): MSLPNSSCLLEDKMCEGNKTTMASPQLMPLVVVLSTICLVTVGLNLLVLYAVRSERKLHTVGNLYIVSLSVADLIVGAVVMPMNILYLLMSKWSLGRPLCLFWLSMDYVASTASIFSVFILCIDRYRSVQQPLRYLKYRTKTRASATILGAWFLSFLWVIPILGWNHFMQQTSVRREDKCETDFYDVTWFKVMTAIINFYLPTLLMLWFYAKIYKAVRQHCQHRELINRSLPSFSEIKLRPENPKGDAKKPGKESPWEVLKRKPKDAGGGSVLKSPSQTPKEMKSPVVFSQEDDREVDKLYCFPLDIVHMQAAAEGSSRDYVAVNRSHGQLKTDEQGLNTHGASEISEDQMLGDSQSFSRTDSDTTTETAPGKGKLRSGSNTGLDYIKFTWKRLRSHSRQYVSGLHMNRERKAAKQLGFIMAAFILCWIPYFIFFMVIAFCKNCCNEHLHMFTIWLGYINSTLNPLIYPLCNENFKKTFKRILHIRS

Consider `C1=C(c2ccco2)CNCC1` [Compound 30], for which the pEC50 on D2 receptor (concentration-response curves) is < 6.00; on M2 receptor (concentration-response curves), 5.00; at 5-HT1D receptor it was < 6.00. For the same compound, the Emax stood at 54% at D2 receptor (concentration-response curves); 125% on M2 receptor (concentration-response curves); 112% on hTAAR1 (relative to the effect of the reference agonist β-PEA, read-out: Emax); 52% at 5-HT1D receptor. Also, the “agonism at the D2 receptor” value at D2 receptor (panel screen) was “agonism”. The activity at 10 µM stood at 70% at H1 receptor and 55% at M2 receptor (panel screen, 10 μM, read-out: agonist activity, % of control). Further, at 5-HT1A receptor, the “activation of 5-HT1A receptor” value is on record as “did not observe a considerable activation”. Further, the agonist type entry at hTAAR1 (TAAR1) is “full agonist”. In addition, the EC50 at hTAAR1 (TAAR1, G protein recruitment assay, read-out: pEC50 (converted)) was 31.6 nM. Also, the “fold more potent than Ulotaront” value at hTAAR1 (TAAR1 G protein recruitment) is given as > 25 fold. For the same compound, at hTAAR1 (TAAR1 G protein recruitment), the “fold more potent than the reference agonist β-PEA” value is ~ 10 fold. The “agonism at the α2A receptor” value at α2A receptor is given as “agonism”. For the same compound, the “agonism at the 5-HT1D receptor” value on 5-HT1D receptor (panel screen) is “agonism”.

Regarding `CN1CC2c3ccccc3Oc3ccc(Cl)cc3C2C1` (centres unmarked) [asenapine], in the assay on TAAR1, the TAAR1 agonism result is listed as “potent TAAR1 agonist”.

For `Cc1nc2n(c(=O)c1CCN1CCC(c3noc4cc(F)ccc34)CC1)CCCC2` [risperidone, reference compound], the “effect on PPI” value in the assay with WT and TAAR1-KO mice [1] (TAAR1-KO mice) was “increased PPI”; in the assay on WT and TAAR1-KO mice [1] (WT mice), “general augmentation in PPI compared to the vehicle control”. Moreover, the effect on locomotion result in the assay with WT and TAAR1-KO mice [2] (TAAR1-KO mice) is recorded as “significant reduction in locomotion”. Further, the “effect on MK-801–induced hyperlocomotion” value in the assay with WT and TAAR1-KO mice [2] (WT mice, MK-801 0.35 mg/kg) is given as “significant decrease”. In the assay on WT and TAAR1-KO mice [2] (WT mice, versus vehicle), the “effect on baseline locomotion” value is recorded as “notable reduction”.

(Values after paper PMC11305387, “AlphaFold accelerated discovery of psychotropic agonists targeting the trace amine–associated receptor 1” (Science Advances, 2024).)
